The source of these data is ChEMBL document CHEMBL1909553, “Design, synthesis and biological evaluation of substituted 11H-benzo[a]carbazole-5-carboxamides as novel antitumor agents” (Eur J Med Chem, 2011).

In one data set the test system is Nucleic Acid. Nature of the data set: Binding affinity to linearized Escherichia coli pBR322 DNA assessed as inhibition of T4-DNA ligase-mediated circularization at 100 uM after 30 mins by agarose gel electrophoresis. The data set is classed as nucleic-acid assay.
The subject of a further data set is A549. Nature of the data set: Growth inhibition of human A549 cells measured after 72 hrs by SRB assay. The data set is classed as functional, cell-based. As to conditions: A549, 72 h.
For data set [1], the system named is HCT-116. In words: Growth inhibition of human HCT116 cells measured after 72 hrs by SRB assay. The class given is functional, cell-based. As to conditions: HCT-116, 72 h.
Data set [2] relates to HL-60. Nature of the data set: Cell cycle arrest in human HL60 cells assessed as accumulation at G2/M phase at 2 uM after 24 hrs by propidium iodide staining-based flow cytometric analysis relative to control. The class given is functional.
For data set [3], the system named is HCT-116. In words: Antitumor activity against human HCT116 cells transplanted in nude mouse assessed as decrease in tumor volume at 15 mg/kg, iv administered three times per week for three weeks measured on day 21 (reference value: 1245 +/- 192 mm'3). The data set is classed as functional.
The subject of the next data set is Mus musculus. In words: Toxicity in nude mouse xenografted with human HCT116 cells assessed as body weight change at 15 mg/kg, iv administered three times a week for 3 weeks (reference value: 19.4 g). The class given is organism-based, HCT-116. Also on record: dose 15 mg/kg, route intravenous. As to conditions: in vivo, 504 h.
Data set [4] concerns HCT-116. In words: Antitumor activity against human HCT116 cells transplanted in nude mouse assessed as tumor volume at 15 mg/kg, iv administered three times per week for three weeks relative to control. The class given is functional.
For data set [5], the system named is HL-60. Nature of the data set: Cell cycle arrest in human HL60 cells assessed as accumulation at G2/M phase at 8 uM after 24 hrs by propidium iodide staining-based flow cytometric analysis relative to control. The class given is functional.

Activity calls are given as the source filed them. No cut-off for these calls is given here. Where only a bound is given, the exact number is not on record here.

On to `CN(C)CCCNC(=O)c1cc2c3ccccc3[nH]c2c2cc(Br)ccc12` [listing 1 of 2 here], for which, in the data set with Nucleic Acid, the inhibition result is “Active”.
Regarding `CN(C)CCCNC(=O)c1cc2c3ccccc3[nH]c2c2cc(Br)ccc12` [listing 2 of 2 here], the IC50 stood at 8.2 µM with A549 and 9.5 µM in the data set with HCT-116 [1]. In addition, the Activity in the data set with HL-60 [2] was found to be 61.3%.
Consider `CN(C)CCN1C(=O)c2cccc3cc(N)cc(c23)C1=O` [AMONAFIDE], for which the IC50 with A549 was found to be 8.1 µM; in the data set on HCT-116 [1] it was 15.3 µM.
The like results for `O=C(NCCN1CCCC1)c1cc2c3ccccc3[nH]c2c2cc(Br)ccc12` were, in that order, 10.6 µM and 11 µM.
As to `O=C(NCCN1CCOCC1)c1cc2c3ccccc3[nH]c2c2cc(Br)ccc12`, the half-maximal inhibitory concentration (IC50) in the data set on A549 amounted to 9.4 µM; with HCT-116 [1], 64.9 µM.
The like results for `O=C(NCCO)c1cc2c3ccccc3[nH]c2c2cc(Br)ccc12` were, in that order, over 100 µM and over 100 µM.
Taken in the same sequence, the figures for `O=C(NCCN1CCCCC1)c1cc2c3ccccc3[nH]c2c2cc(Br)ccc12` were 19.5 µM and 17 µM.
Taken in the same sequence, the figures for `CNCCNC(=O)c1cc2c3ccccc3[nH]c2c2cc(Br)ccc12` were 17.5 µM and 16.2 µM.
Consider `O=C(NCCN1CCNCC1)c1cc2c3ccccc3[nH]c2c2cc(Br)ccc12`, for which the IC50 came out at 68.4 µM with A549 and 70.3 µM in the data set on HCT-116 [1].
For `CN(C)CCN1C(=O)c2cccc3cc(N)cc(c23)C1=O.O=C(O)CC(O)(CC(=O)O)C(=O)O` [AMONAFIDE CITRATE], the Activity came out at 664 mm3 with HCT-116 [3] and 14.6 g in the data set on Mus musculus. In addition, the T/C in the data set with HCT-116 [4] is 52.74%.
As for `CN(C)CCN1C(=O)c2cccc3c2c(cc2c4ccccc4sc32)C1=O`, the IC50 in the data set on A549 was found to be 0.4 µM; with HCT-116 [1], 2.2 µM. Further, in the data set on Nucleic Acid, the inhibition entry is “Active”. In the data set with HL-60 [2], the Activity is 52.48%.
On to `CN(C)CCNC(=O)c1cc2c3ccccc3[nH]c2c2cc(N(C)C)ccc12`, for which the results for the IC50 in the data set with A549 and in the data set on HCT-116 [1] were 23.1 µM and 20.1 µM, respectively.
On to `CN(C)CCCNC(=O)c1cc2c3ccccc3[nH]c2c2cc(Br)ccc12.O=C(O)CC(O)(CC(=O)O)C(=O)O`, for which the Activity in the data set on HCT-116 [3] is given as 676 mm3; with Mus musculus, 16.3 g. Also, the T/C in the data set on HCT-116 [4] stood at 58.97%.
As to `O=C(NCCNCCO)c1cc2c3ccccc3[nH]c2c2cc(Br)ccc12`, the IC50 in the data set with A549 was found to be 25.6 µM; in the data set with HCT-116 [1] it was 17.5 µM.
On to `CN(C)CCNC(=O)c1cc2c3ccccc3[nH]c2c2ccccc12`, for which the half-maximal inhibitory concentration (IC50) in the data set on A549 and with HCT-116 [1] was 23.8 µM in each case.
Regarding `CN(C)CCNC(=O)c1cc2c3ccccc3[nH]c2c2cc(Br)ccc12`, the half-maximal inhibitory concentration (IC50) in the data set on A549 came out at 12.1 µM; in the data set on HCT-116 [1], 8.8 µM. For the same compound, in the data set on HL-60 [5], the Activity is 48.13%. Also, the inhibition result with Nucleic Acid was “Active”.
In the case of `CN(C)CCNC(=O)c1cc2c3ccccc3[nH]c2c2cc(N)ccc12`, the IC50 in the data set with A549 amounted to 38.4 µM; in the data set on HCT-116 [1] it was 36.2 µM.
